Consider 5 compounds from paper PMC11387447 (Pharmacological Reports, 2024).

Structures are written as SMILES. Read-outs that look alike come from different tables or passages of the source. Marks after values point to notes of the source that are not given here.

Data set [1] is described as follows: Plasma pharmacokinetics of REG, M-2 and M-5 in rats after single oral REG with or without ATO (UPLC-MS/MS, non-compartmental analysis). Type of data set: in vivo, male Wistar rats. Particulars: for increase of AUC0–t / increase of AUC0–∞: IREG+ATO group compared to control IIREG group; for Cmax as share of the REG Cmax: single dose of REG 20 mg/kg; for AUC0–t / AUC0–∞ / Cmax / AUC(0-inf) / AUC(0-t): rat plasma; for AUC0–t / AUC0–∞ / Cmax / Tmax / Vd/F / AUC(0-inf) / AUC(0-t): n = 8. Here is the method: Nonetheless, no other experimental conditions were changed.
Next, 20 μL of acetonitrile was added. The samples were mixed for 10 min and then centrifuged for 10 min at 8500 rpm. 50 μL of the resulting supernatant was filtered and used for further analysis. Each sample was analyzed twice, and the arithmetic mean was determined from the surface areas obtained in the chromatogram.
The LC–MS/MS system consisted of a Xevo TQ-S-micro triple quadrupole mass spectrometer coupled with a UPLC Acquity I-class PLUS (Waters Corporation, Milford, MA, USA), and the Waters Software MassLynx V4.2 SCN1017 Software. A Cortecs UPLC C18 column (2.1 × 50 mm, 1.6 μm) was equipped with an Acquity UPLC BEH C18 VanGuard pre-column (2.1 × 5 mm, 3/Pk, Waters Corporation). The injection volume was 5 μL. The temperature of the autosampler was 4 °C, and the temperature of the column was 40 °C. Mobile phase A was composed of 0.1% aqueous formic acid solution (v/v), and phase B of acetonitrile: methanol and 0.1% formic acid aqueous solution at 1:3 (v/v) ratio. The total run time was 5 min. […] Positive electrospray ionization (ESI) multiple reaction monitoring (MRM) experiments were conducted for sample analysis. The Xevo TQ-S Micro Mass spectrometer (Waters) was run in the positive ion mode, and configured in the multiple reaction monitoring mode, for the detection of REG, REG-N-oxide (M-2), N-desmethyl-REG-N-oxide (M-5), and isotope-labelled REG-d3.
The data were collected and processed using the MassLynx Software (V 4.2 SCN 1017, Waters). The following settings were used for the Xevo TQ-S Micro Mass spectrometer: source temperature—150 °C, desolvation temperature—600 °C, nitrogen gas flow—900 L/h, capillary voltage 3.6 kV. Transition ion pairs (parent m/z—daughter m/z) were identified, using the MRM mode, for the following compounds: 482.95–270.08 and 288.02 for REG; 499.00–304.01, 252.16, and 229.00 for M-2; 485.94–202.02 and 228.98 for M-5; and 486.02–273.07 for REG-d3 as an IS.

On the set-up of data set [2]: method as in earlier work. The note with it: mice, repeated oral 10 mg/kg of REG for 5 consecutive days; ref 27 (Zopf et al.); cited from earlier work.
The conditions of data set [3]: IIIATO group: single oral ATO 20 mg/kg b.w. alone, rat plasma, n = 8; median (quartiles) or mean ± SD (CV %); adopted from previous study ref 12; cited from earlier work.
Where [4] appears, read: IIREG group: REG 20 mg/kg b.w. alone, median (quartiles).
[5] abbreviates: IREG+ATO group: REG 20 mg/kg + ATO 20 mg/kg b.w., median (quartiles).
Where [6] appears, read: metabolite of REG, IIREG group: single oral REG 20 mg/kg b.w. alone, median (quartiles).
[7] abbreviates: metabolite of REG, IREG+ATO group: single oral REG 20 mg/kg + ATO 20 mg/kg b.w., median (quartiles).
Setting [8] is: in the presence of ATO (IREG+ATO vs IIREG).
Setting [9] is: male, Wistar, rat, plasma, po, 20 mg/kg, IIREG group: single oral REG 20 mg/kg b.w. alone, median (quartiles).
Where [10] appears, read: male, Wistar, rat, plasma, po, 20 mg/kg, IREG+ATO group: single oral REG 20 mg/kg + ATO 20 mg/kg b.w., median (quartiles).

For the compound `NC(=O)c1cc(Oc2ccc(NC(=O)Nc3ccc(Cl)c(C(F)(F)F)c3)c(F)c2)cc[n+]1[O-]` [M-5, N-desmethyl regorafenib N-oxide], the “M-5/REG ratio Cmax” value in data set [1] (setting [4]) is 0.01 (0.01; 0.02). In addition, in data set [1], the “increase of AUC0–t” value worked out at 6.0 fold and the “increase of AUC0–∞” value stood at 6.0 fold. The “Cmax as share of the REG Cmax” value in data set [1] (IREG+ATO group) came out at 2.12%. Also, the “M-5/REG ratio Cmax” value in data set [1] (setting [5]) is 0.02 (0.02; 0.02). In data set [1] (IREG+ATO vs IIREG), the “Gmean ratio (90% CI) of AUC0–t” value is on record as 7.13 (6.13; 8.29)*, the “Gmean ratio (90% CI) of AUC0–∞” value was 7.16 (6.21; 8.26)*, the “Gmean ratio (90% CI) of Cmax” value is reported as 5.65 (5.06; 6.31)* and the “Gmean ratio (90% CI) of M-5/REG ratio AUC0–t” value is given as 1.70 (1.42; 2.03). Besides, in data set [1] (IREG+ATO vs IIREG), the “Gmean ratio (90% CI) of M-5/REG ratio AUC0–∞” value is on record as 1.71 (1.43; 2.03) and the “Gmean ratio (90% CI) of M-5/REG ratio Cmax” value is recorded as 1.52 (0.68; 3.39)*. Further, the “Cmax as share of the REG Cmax” value in data set [1] (REG group) is given as 1.17%. In data set [1] (in the presence of ATO), the “increase of M-5/REG ratio for AUC0–t” value was found to be 100.0%, the “increase of M-5/REG ratio for AUC0–∞” value is listed as 100.0% and the “increase of M-5/REG ratio for Cmax” value was 66.7%. In data set [1] (setting [6]), the “AUC0–t” value is 791.48 (703.15; 884.23) ng × h/mL, the “AUC0–∞” value is recorded as 833.10 (752.92; 929.13) ng × h/mL and the Cmax is given as 26.90 (23.40; 28.65) ng/mL. In data set [1] (setting [7]), the “AUC0–t” value is 5501.55 (5310.04; 5967.36) ng × h/mL, the “AUC0–∞” value is given as 5919.80 (5556.63; 6371.62) ng × h/mL and the Cmax is reported as 150.05 (136.75; 155.40) ng/mL. The “Cmax as share of the REG Cmax” value in data set [2] is 1.27%.

For `CNC(=O)c1cc(Oc2ccc(NC(=O)Nc3ccc(Cl)c(C(F)(F)F)c3)c(F)c2)cc[n+]1[O-]` [M-2, regorafenib N-oxide], in data set [1] (setting [4]), the “M-2/REG ratio AUC0–t” value is 0.26 (0.20; 0.31), the “M-2/REG ratio AUC0–∞” value was 0.30 (0.26; 0.38) and the “M-2/REG ratio Cmax” value is 0.18 (0.13; 0.28). Further, in data set [1], the “increase of AUC0–t” value is given as 4.5 fold and the “increase of AUC0–∞” value came to 3.6 fold. The “Cmax as share of the REG Cmax” value in data set [1] (IREG+ATO group) is given as 24.14%. Further, in data set [1] (setting [5]), the “M-2/REG ratio AUC0–t” value is recorded as 0.31 (0.27; 0.45) and the “M-2/REG ratio Cmax” value is 0.27 (0.20; 0.33). Further, in data set [1] (IREG+ATO vs IIREG), the “Gmean ratio (90% CI) of AUC0–t” value is listed as 5.47 (4.30; 6.96)*, the “Gmean ratio (90% CI) of AUC0–∞” value is recorded as 4.55 (3.70; 5.60)*, the “Gmean ratio (90% CI) of Cmax” value is given as 5.03 (3.82; 6.62)* and the “Gmean ratio (90% CI) of M-2/REG ratio AUC0–t” value is 1.30 (0.96; 1.76)*. Besides, in data set [1] (IREG+ATO vs IIREG), the “Gmean ratio (90% CI) of M-2/REG ratio AUC0–∞” value is recorded as 1.08 (0.81; 1.46)* and the “Gmean ratio (90% CI) of M-2/REG ratio Cmax” value is 1.35 (0.60; 3.07)*. Also, the “Cmax as share of the REG Cmax” value in data set [1] (REG group) turned out to be 15.28%. Besides, in data set [1] (setting [6]), the “AUC0–t” value is on record as 9548.40 (8488.70; 11,642.31) ng × h/mL, the “AUC0–∞” value is given as 10,947.48 (9718.99; 12,781.14) ng × h/mL and the Cmax is on record as 302.15 (249.90; 395.95) ng/mL. For the same compound, in data set [1] (setting [7]), the “AUC0–t” value is recorded as 52,182.11 (40,840.43; 64,989.90) ng × h/mL, the “AUC0–∞” value was 52,438.36 (41,030.58; 65,561.89) ng × h/mL and the Cmax is given as 1647.45 (1374.65; 1994.65) ng/mL. Besides, the “Cmax as share of the REG Cmax” value in data set [2] is on record as 15.17%.

`CC(C)c1c(C(=O)Nc2ccc(O)cc2)c(-c2ccccc2)c(-c2ccc(F)cc2)n1CC[C@@H](O)C[C@@H](O)CC(=O)O` [4-OH ATO, parahydroxy atorvastatin]: the “AUC0–∞” value in data set [3] was 18.32 (12.89; 24.73) ng × h/mL.

Regarding `CC(C)c1c(C(=O)Nc2ccccc2O)c(-c2ccccc2)c(-c2ccc(F)cc2)n1CC[C@@H](O)C[C@@H](O)CC(=O)O` [2-OH ATO, orthohydroxy atorvastatin], in data set [3], the “AUC0–t” value is recorded as 544.83 (448.90; 682.46) ng × h/mL and the Cmax was 126.09 (87.49; 276.16) ng/mL.

A word on the Tmax: it is the time at which the peak concentration occurs. By Vd/F is commonly meant the apparent distribution volume after extravascular dosing. As usually defined, the AUC(0-inf) is total exposure, with the tail of the curve extrapolated. Usually AUC(0-t) stands for the area under the concentration-time curve up to a stated or last time point. Consider `CNC(=O)c1cc(Oc2ccc(NC(=O)Nc3ccc(Cl)c(C(F)(F)F)c3)c(F)c2)ccn1` [REG, regorafenib, reference compound], for which, in data set [1], the “increase of AUC0–t” value is 3.2 fold and the “increase of AUC0–∞” value was 3.2 fold. In data set [1] (IREG+ATO vs IIREG), the “Gmean ratio (90% CI) of AUC0–t” value is on record as 4.20 (3.57; 4.95)*, the “Gmean ratio (90% CI) of AUC0–∞” value is listed as 4.20 (3.56; 4.94)*, the “Gmean ratio (90% CI) of Cl/F” value is 0.26 (0.22; 0.30)* and the “Gmean ratio (90% CI) of Cmax” value is listed as 3.72 (3.20; 4.32)*. Also, in data set [1] (IREG+ATO vs IIREG), the “Gmean ratio (90% CI) of Vd/F” value is reported as 0.28 (0.22; 0.37)*, the “Gmean ratio (90% CI) of ka” value was 1.60 (1.09; 2.37), the “Gmean ratio (90% CI) of kel” value is 0.91 (0.75; 1.10) and the “Gmean ratio (90% CI) of t1/2” value is on record as 1.10 (0.91; 1.33). Moreover, in data set [1] (IREG+ATO vs IIREG), the “Gmean ratio (90% CI) of tmax” value was 0.85 (0.63; 1.17)* and the “differences in tmax, ka, kel, t0.5” value is recorded as “No statistically significant differences”. Moreover, in data set [1] (setting [8]), the “decrease of Cl/F” value was found to be 72.7% and the “decrease of Vd/F” value was determined as 71.7%. Also, in data set [1] (setting [9]), the Tmax was found to be 6 h, the Vd/F was 1.98 L, the AUC(0-inf) worked out at 36000 ng·h/mL and the AUC(0-t) was determined as 35800 ng·h/mL. For the same compound, the Cmax in data set [1] (male, Wistar, rat, plasma, po, 20 mg/kg, IIREG group: single oral REG 20 mg/kg b.w. alone, median (quartiles), read-out: Cmax) was determined as 1880 ng/mL. In addition, in data set [1] (setting [10]), the Tmax amounted to 5 h, the Vd/F came out at 0.51 L, the AUC(0-inf) turned out to be 163000 ng·h/mL and the exposure AUC(0-t) stood at 163000 ng·h/mL. For the same compound, in data set [1] (male, Wistar, rat, plasma, po, 20 mg/kg, IREG+ATO group: single oral REG 20 mg/kg + ATO 20 mg/kg b.w., median (quartiles), read-out: Cmax), the Cmax is 7290 ng/mL.
